Source: paper PMC3445516 (PLoS ONE, 2012)
Read-outs that look alike come from different tables or passages of the source. Each block holds one compound with its values, some of them ahead of it.

Experiments:
Experiment in all cases: Ambit kinase profiling, competition binding
ADCK4 = target: T1, ADCK4 (Homo sapiens, UniProt Q96D53)
T1 construct: purchased Ambit Biosciences (KINOMEscan)
T1 sequence (Q96D53 1-544): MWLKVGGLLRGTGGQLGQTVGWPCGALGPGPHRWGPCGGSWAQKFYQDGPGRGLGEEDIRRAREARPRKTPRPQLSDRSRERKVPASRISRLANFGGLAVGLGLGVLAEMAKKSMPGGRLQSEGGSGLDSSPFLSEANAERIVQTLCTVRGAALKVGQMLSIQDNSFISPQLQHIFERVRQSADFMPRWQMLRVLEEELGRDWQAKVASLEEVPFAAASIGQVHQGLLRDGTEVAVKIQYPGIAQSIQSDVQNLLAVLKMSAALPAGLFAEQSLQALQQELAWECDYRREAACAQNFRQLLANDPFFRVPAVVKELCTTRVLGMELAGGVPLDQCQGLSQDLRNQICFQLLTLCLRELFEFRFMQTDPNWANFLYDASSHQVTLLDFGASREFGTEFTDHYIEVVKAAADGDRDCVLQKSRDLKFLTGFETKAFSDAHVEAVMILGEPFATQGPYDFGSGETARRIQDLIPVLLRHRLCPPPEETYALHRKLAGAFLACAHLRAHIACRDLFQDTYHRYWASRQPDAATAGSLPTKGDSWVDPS
Experimental: (§1) Also included in the kinase profile are four isoforms of PKC (δ, ε, η, θ) and eight isoforms of CAMKs (CAMKIα, δ, γ; CAMKIIα, β, δ, γ; CAMK4).
(§2) The global kinase profiling experiment was performed by Ambit Biosciences.

TAOK1 = target: T2, TAOK1 (Homo sapiens, UniProt Q7L7X3)
T2 construct: purchased Ambit Biosciences (KINOMEscan)
T2 sequence (Q7L7X3 1-1001): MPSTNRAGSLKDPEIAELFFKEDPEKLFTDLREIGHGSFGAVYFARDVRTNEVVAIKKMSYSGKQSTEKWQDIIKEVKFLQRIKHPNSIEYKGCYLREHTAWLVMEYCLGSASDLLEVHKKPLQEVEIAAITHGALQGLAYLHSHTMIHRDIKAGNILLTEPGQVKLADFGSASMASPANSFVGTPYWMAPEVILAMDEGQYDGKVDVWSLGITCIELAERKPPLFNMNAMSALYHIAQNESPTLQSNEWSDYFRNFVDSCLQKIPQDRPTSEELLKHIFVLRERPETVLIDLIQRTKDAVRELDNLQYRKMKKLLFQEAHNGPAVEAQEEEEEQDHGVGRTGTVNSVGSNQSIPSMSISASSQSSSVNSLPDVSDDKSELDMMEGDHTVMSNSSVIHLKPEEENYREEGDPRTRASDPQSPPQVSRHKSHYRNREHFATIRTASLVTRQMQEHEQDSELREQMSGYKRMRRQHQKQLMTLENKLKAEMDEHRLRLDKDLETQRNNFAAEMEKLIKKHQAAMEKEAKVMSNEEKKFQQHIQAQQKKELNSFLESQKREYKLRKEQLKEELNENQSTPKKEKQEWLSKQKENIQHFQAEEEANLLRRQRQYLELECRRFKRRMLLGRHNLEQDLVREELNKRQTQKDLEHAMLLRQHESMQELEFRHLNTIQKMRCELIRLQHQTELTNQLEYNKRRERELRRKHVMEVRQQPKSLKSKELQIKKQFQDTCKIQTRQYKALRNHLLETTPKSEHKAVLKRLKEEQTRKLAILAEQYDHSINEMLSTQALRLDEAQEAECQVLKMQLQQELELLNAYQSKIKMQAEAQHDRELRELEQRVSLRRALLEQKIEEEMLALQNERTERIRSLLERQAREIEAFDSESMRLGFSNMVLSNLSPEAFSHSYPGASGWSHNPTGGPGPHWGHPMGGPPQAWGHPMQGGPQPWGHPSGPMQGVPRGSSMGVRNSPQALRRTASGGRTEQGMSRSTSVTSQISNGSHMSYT
Experimental: as §1, §2

MAP4K4 = target: T3, MAP4K4 (Homo sapiens, UniProt O95819)
T3 construct: purchased Ambit Biosciences (KINOMEscan)
T3 sequence (O95819 whole entry): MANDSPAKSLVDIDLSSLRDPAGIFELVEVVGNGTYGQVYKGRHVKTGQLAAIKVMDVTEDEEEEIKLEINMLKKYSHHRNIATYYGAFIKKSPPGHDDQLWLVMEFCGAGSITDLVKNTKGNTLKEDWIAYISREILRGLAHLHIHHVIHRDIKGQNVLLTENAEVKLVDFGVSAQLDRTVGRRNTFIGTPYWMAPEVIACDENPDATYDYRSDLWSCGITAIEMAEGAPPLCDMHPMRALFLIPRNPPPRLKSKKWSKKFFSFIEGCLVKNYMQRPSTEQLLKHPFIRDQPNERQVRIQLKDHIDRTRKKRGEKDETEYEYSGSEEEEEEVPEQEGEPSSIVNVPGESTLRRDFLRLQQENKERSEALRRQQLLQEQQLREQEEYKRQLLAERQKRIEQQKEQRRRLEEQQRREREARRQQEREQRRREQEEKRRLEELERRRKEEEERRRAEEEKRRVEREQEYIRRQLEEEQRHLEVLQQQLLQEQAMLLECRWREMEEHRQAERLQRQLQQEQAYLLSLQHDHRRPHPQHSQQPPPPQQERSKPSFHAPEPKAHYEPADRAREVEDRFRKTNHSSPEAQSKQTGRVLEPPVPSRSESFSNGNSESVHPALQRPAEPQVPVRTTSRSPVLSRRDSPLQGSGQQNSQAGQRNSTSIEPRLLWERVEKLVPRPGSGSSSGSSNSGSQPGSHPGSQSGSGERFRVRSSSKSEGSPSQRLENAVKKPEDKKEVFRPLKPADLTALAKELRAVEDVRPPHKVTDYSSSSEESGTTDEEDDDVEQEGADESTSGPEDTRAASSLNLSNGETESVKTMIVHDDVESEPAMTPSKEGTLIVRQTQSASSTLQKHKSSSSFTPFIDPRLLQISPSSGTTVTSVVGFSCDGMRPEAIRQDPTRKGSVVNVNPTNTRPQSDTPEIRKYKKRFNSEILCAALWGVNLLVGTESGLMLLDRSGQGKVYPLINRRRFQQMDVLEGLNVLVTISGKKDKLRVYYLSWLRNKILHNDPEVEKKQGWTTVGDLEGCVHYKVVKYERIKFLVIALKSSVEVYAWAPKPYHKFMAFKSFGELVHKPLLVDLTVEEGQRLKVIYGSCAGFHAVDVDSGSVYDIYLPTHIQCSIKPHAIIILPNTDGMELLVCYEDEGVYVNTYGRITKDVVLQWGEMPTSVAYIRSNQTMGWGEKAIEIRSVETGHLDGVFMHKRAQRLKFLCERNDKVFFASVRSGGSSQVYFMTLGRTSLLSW
Experimental: as §1, §2

[1] = target: T4, EGFR(L747-S752del, P753S) (Homo sapiens, UniProt P00533, DEL747-752/P753S); conditions: for % Competition: 10 µM
T4 construct: purchased Ambit Biosciences (KINOMEscan)
Experimental: as §1, §2

GSK3A = target: T5, GSK3A (Homo sapiens, UniProt P49840)
T5 construct: purchased Ambit Biosciences (KINOMEscan)
T5 sequence (P49840 whole entry): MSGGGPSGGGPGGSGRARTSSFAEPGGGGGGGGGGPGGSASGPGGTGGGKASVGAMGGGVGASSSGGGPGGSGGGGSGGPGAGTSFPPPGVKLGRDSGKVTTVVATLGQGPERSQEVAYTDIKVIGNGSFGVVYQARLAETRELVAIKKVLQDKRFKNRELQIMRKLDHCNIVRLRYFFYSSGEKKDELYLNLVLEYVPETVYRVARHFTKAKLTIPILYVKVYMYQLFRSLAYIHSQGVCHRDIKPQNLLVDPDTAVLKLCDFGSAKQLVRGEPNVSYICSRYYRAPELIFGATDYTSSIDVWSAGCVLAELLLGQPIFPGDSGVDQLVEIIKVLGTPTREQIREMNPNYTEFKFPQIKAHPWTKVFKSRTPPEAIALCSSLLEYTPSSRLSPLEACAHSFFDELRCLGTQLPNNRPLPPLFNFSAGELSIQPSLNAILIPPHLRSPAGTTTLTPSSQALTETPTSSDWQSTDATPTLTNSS
Experimental: as §1, §2

TAOK3 = target: T6, TAOK3 (Homo sapiens, UniProt Q9H2K8)
T6 construct: purchased Ambit Biosciences (KINOMEscan)
T6 sequence (Q9H2K8 1-898): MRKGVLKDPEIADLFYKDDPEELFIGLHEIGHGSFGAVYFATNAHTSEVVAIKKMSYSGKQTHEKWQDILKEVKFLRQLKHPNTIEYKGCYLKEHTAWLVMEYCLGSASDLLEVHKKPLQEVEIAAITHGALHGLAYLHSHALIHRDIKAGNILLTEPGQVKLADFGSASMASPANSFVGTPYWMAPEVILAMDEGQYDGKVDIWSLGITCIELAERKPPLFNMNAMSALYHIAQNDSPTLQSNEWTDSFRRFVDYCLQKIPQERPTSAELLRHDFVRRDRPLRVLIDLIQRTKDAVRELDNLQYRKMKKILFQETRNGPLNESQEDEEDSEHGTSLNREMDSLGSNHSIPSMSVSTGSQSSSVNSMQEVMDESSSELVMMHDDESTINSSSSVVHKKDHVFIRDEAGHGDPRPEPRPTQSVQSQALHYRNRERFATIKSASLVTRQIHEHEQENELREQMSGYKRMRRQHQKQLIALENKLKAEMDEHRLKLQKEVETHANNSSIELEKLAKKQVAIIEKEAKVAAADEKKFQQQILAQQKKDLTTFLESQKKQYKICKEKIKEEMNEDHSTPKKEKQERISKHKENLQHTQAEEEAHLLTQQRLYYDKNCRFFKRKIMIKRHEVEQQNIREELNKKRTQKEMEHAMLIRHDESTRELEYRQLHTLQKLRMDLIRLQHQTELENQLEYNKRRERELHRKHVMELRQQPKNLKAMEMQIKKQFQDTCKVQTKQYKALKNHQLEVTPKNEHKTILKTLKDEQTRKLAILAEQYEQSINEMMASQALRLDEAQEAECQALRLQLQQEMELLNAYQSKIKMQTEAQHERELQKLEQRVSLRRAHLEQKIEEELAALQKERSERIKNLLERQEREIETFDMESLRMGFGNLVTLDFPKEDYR
Experimental: as §1, §2

MST4 = target: T7, MST4 (Homo sapiens, UniProt Q9P289)
T7 construct: purchased Ambit Biosciences (KINOMEscan)
T7 sequence (Q9P289 whole entry): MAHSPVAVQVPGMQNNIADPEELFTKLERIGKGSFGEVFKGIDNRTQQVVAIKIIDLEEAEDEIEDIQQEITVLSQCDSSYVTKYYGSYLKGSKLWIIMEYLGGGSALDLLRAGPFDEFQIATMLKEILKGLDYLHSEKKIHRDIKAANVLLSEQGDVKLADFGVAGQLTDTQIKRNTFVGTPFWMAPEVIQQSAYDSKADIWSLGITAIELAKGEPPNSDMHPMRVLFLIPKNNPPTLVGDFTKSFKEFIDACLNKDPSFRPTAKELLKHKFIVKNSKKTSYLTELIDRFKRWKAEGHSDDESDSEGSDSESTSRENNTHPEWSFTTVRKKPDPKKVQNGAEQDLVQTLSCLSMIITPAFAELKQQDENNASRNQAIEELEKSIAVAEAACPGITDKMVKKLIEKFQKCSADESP
Experimental: as §1, §2

JNK2 = target: T8, JNK2 (Homo sapiens, UniProt P45984); conditions: for % Competition: 10 µM
T8 construct: purchased Ambit Biosciences (KINOMEscan)
T8 sequence (P45984 whole entry): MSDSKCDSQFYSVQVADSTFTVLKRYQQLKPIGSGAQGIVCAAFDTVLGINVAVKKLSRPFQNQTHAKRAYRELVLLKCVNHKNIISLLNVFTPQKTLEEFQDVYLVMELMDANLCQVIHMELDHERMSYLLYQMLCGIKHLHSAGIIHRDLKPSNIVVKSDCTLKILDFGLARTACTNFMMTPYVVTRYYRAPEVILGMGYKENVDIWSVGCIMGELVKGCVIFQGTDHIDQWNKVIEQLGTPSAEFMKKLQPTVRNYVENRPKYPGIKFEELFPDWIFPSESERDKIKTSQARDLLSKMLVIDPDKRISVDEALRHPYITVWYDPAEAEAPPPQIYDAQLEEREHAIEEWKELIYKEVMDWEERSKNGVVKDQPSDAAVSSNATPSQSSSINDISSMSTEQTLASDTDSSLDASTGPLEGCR
Experimental: as §1, §2

inhibition at 10 µM (ADCK4; ADCK4, 10 µM, read-out: % Competition): 94%
inhibition at 10 µM (TAOK1; TAOK1, 10 µM, read-out: % Competition): 99%
inhibition at 10 µM (MAP4K4; MAP4K4, 10 µM, read-out: % Competition): 84%
% Competition [1]: 95%
inhibition at 10 µM (GSK3A; GSK3A, 10 µM, read-out: % Competition): 98%
inhibition at 10 µM (TAOK3; TAOK3, 10 µM, read-out: % Competition): 80%
inhibition at 10 µM (MST4; MST4, 10 µM, read-out: % Competition): 97%
% Competition (JNK2): 100%
SMILES: Fc1ccc(-c2c(-c3ccncc3)[nH]c3nccnc23)cc1 [Compound 122]

SMILES: CC(O)CNc1cc(-c2[nH]c3cccnc3c2-c2ccc(F)cc2)ccn1 (stereo not drawn) [Compound 140]
inhibition at 10 µM (ADCK4; read-out: % Competition): 98%
inhibition at 10 µM (TAOK1; read-out: % Competition): 67%
inhibition at 10 µM (MAP4K4; read-out: % Competition): < 50%
% Competition [1]: 84%
inhibition at 10 µM (GSK3A; read-out: % Competition): < 50%
inhibition at 10 µM (TAOK3; read-out: % Competition): < 50%
inhibition at 10 µM (MST4; read-out: % Competition): < 50%
% Competition (JNK2): 100%

inhibition at 10 µM (ADCK4; ADCK4, compound concentration 10 uM, read-out: Percent Competition): 94%
inhibition at 10 µM (TAOK1; TAOK1, compound concentration 10 uM, read-out: Percent Competition): 99%
inhibition at 10 µM (MAP4K4; MAP4K4, compound concentration 10 uM, read-out: Percent Competition): 84%
Percent Competition ([1]; compound concentration 10 uM): 95%
inhibition at 10 µM (GSK3A; GSK3A, compound concentration 10 uM, read-out: Percent Competition): 98%
inhibition at 10 µM (TAOK3; TAOK3, compound concentration 10 uM, read-out: Percent Competition): 80%
inhibition at 10 µM (MST4; MST4, compound concentration 10 uM, read-out: Percent Competition): 97%
Percent Competition (JNK2; compound concentration 10 uM): 100%
SMILES: Fc1ccc(-c2c(-c3ccncc3)[nH]c3nccnc23)cc1 [RO1155697-000-005]
